The results in this text go back to the supplement of paper PMC8967900.
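Also: ALL cell lines in 384-well plates, five doses spanning 10,000-fold, each plate scaled between vehicle and 100 µmol/L benzalkonium chloride controls, sDSS an adapted area-under-curve metric.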

One assay relates to KASUMI-10. Nature of the assay: selective drug sensitivity score (sDSS, relative to normal bone marrow) (sDSS (score)); higher = more potent and effective on the cell line relative to normal bone marrow cells. The following applies: 72 h.
For the compound `Cn1cc(C[C@@H](N)C(=O)O)c2ccccc21` [1-methyl-D-tryptophan] (top concentration 5000 nM), the “selective drug sensitivity score” value is -0.62.
On the same count and under the same terms, as for `CN(C)C[C@@H]1CCn2cc(c3ccccc32)C2=C(C(=O)NC2=O)c2cn(c3ccccc23)CCO1` [Ruboxistaurin] (top concentration 10000 nM), the figure is 1.96.
Same read-out and setting: as for `CCNC(=O)CCC/C=C\C[C@@H]1[C@@H](/C=C/[C@@H](O)CCc2ccccc2)[C@H](O)C[C@@H]1O` [Bimatoprost] (top concentration 5500 nM), the figure is 0.
Still for that read-out and setting: as for `O=c1[nH]cc(F)c(=O)[nH]1` [Fluorouracil] (top concentration 10000 nM), the figure is 2.96.
Take `CC1(C)NC(=O)N(c2ccc([N+](=O)[O-])c(C(F)(F)F)c2)C1=O` [Nilutamide] (top concentration 10000 nM): the “selective drug sensitivity score” value was found to be 0.22.
With `CNC(=O)c1ccc2cc([C@@]3(O)CCn4cncc43)ccc2c1` [Orteronel] (top concentration 10000 nM), the “selective drug sensitivity score” value came to 0.
Take `CCC(C)(C)C(=O)O[C@H]1C[C@@H](C)C=C2C=C[C@H](C)[C@H](CC[C@@H]3C[C@@H](O)CC(=O)O3)[C@H]21` [Simvastatin] (top concentration 10000 nM): the “selective drug sensitivity score” value is -0.72.
`C[C@]12CC[C@H](O)CC1=CC[C@@H]1[C@@H]2CC[C@]2(C)C(c3cccnc3)=CC[C@@H]12` [Abiraterone] (top concentration 5000 nM): the “selective drug sensitivity score” value was -0.12.

For another assay, the system named is KASUMI-9. The description is as above. The following applies: 72 h.
Regarding `Cn1cc(C[C@@H](N)C(=O)O)c2ccccc21` [1-methyl-D-tryptophan] (top concentration 5000 nM), the “selective drug sensitivity score” value is -0.62.
With `CN(C)C[C@@H]1CCn2cc(c3ccccc32)C2=C(C(=O)NC2=O)c2cn(c3ccccc23)CCO1` [Ruboxistaurin] (top concentration 10000 nM), the “selective drug sensitivity score” value is 1.36.
Still for that read-out and setting: then `CCNC(=O)CCC/C=C\C[C@@H]1[C@@H](/C=C/[C@@H](O)CCc2ccccc2)[C@H](O)C[C@@H]1O` [Bimatoprost] (top concentration 5500 nM), with 0; and `O=c1[nH]cc(F)c(=O)[nH]1` [Fluorouracil] (top concentration 10000 nM), with 3.26; and `CC1(C)NC(=O)N(c2ccc([N+](=O)[O-])c(C(F)(F)F)c2)C1=O` [Nilutamide] (top concentration 10000 nM), with -0.28.
Same read-out and setting: as for `CNC(=O)c1ccc2cc([C@@]3(O)CCn4cncc43)ccc2c1` [Orteronel] (top concentration 10000 nM), the figure is 0; as for `CCC(C)(C)C(=O)O[C@H]1C[C@@H](C)C=C2C=C[C@H](C)[C@H](CC[C@@H]3C[C@@H](O)CC(=O)O3)[C@H]21` [Simvastatin] (top concentration 10000 nM), 4.18.
As for `C[C@]12CC[C@H](O)CC1=CC[C@@H]1[C@@H]2CC[C@]2(C)C(c3cccnc3)=CC[C@@H]12` [Abiraterone] (top concentration 5000 nM), the “selective drug sensitivity score” value is -0.12.

Another assay has as its system COG-LL-319h. The assay is described as above. The following applies: 72 h.
`Cn1cc(C[C@@H](N)C(=O)O)c2ccccc21` [1-methyl-D-tryptophan] (top concentration 5000 nM): the “selective drug sensitivity score” value was -0.62.
The same measure, in the same setting: as for `CN(C)C[C@@H]1CCn2cc(c3ccccc32)C2=C(C(=O)NC2=O)c2cn(c3ccccc23)CCO1` [Ruboxistaurin] (top concentration 10000 nM), the figure is -1.04.
Still for that read-out and setting: as for `CCNC(=O)CCC/C=C\C[C@@H]1[C@@H](/C=C/[C@@H](O)CCc2ccccc2)[C@H](O)C[C@@H]1O` [Bimatoprost] (top concentration 5500 nM), the figure is 0; as for `O=c1[nH]cc(F)c(=O)[nH]1` [Fluorouracil] (top concentration 10000 nM), 6.56; as for `CC1(C)NC(=O)N(c2ccc([N+](=O)[O-])c(C(F)(F)F)c2)C1=O` [Nilutamide] (top concentration 10000 nM), -0.48.
On the same count and under the same terms, as for `CNC(=O)c1ccc2cc([C@@]3(O)CCn4cncc43)ccc2c1` [Orteronel] (top concentration 10000 nM), the figure is 4.9; as for `CCC(C)(C)C(=O)O[C@H]1C[C@@H](C)C=C2C=C[C@H](C)[C@H](CC[C@@H]3C[C@@H](O)CC(=O)O3)[C@H]21` [Simvastatin] (top concentration 10000 nM), 0.68; as for `C[C@]12CC[C@H](O)CC1=CC[C@@H]1[C@@H]2CC[C@]2(C)C(c3cccnc3)=CC[C@@H]12` [Abiraterone] (top concentration 5000 nM), 0.08.

The test system of the next assay is MN-60. Described as above. Particulars: 72 h.
In the case of `Cn1cc(C[C@@H](N)C(=O)O)c2ccccc21` [1-methyl-D-tryptophan] (top concentration 5000 nM), the “selective drug sensitivity score” value is -0.62.
As for `CN(C)C[C@@H]1CCn2cc(c3ccccc32)C2=C(C(=O)NC2=O)c2cn(c3ccccc23)CCO1` [Ruboxistaurin] (top concentration 10000 nM), the “selective drug sensitivity score” value was -5.44.
On the same count and under the same terms, as for `CCNC(=O)CCC/C=C\C[C@@H]1[C@@H](/C=C/[C@@H](O)CCc2ccccc2)[C@H](O)C[C@@H]1O` [Bimatoprost] (top concentration 5500 nM), the figure is 0; as for `O=c1[nH]cc(F)c(=O)[nH]1` [Fluorouracil] (top concentration 10000 nM), -0.64; as for `CC1(C)NC(=O)N(c2ccc([N+](=O)[O-])c(C(F)(F)F)c2)C1=O` [Nilutamide] (top concentration 10000 nM), -0.48.
`CNC(=O)c1ccc2cc([C@@]3(O)CCn4cncc43)ccc2c1` [Orteronel] (top concentration 10000 nM): the “selective drug sensitivity score” value was determined as 0.
As to `CCC(C)(C)C(=O)O[C@H]1C[C@@H](C)C=C2C=C[C@H](C)[C@H](CC[C@@H]3C[C@@H](O)CC(=O)O3)[C@H]21` [Simvastatin] (top concentration 10000 nM), the “selective drug sensitivity score” value was -0.72.
In the case of `C[C@]12CC[C@H](O)CC1=CC[C@@H]1[C@@H]2CC[C@]2(C)C(c3cccnc3)=CC[C@@H]12` [Abiraterone] (top concentration 5000 nM), the “selective drug sensitivity score” value was -0.12.

The next assay has as its system DND-41. Described as above. Particulars: 72 h.
Regarding `Cn1cc(C[C@@H](N)C(=O)O)c2ccccc21` [1-methyl-D-tryptophan] (top concentration 5000 nM), the “selective drug sensitivity score” value is -0.62.
With `CN(C)C[C@@H]1CCn2cc(c3ccccc32)C2=C(C(=O)NC2=O)c2cn(c3ccccc23)CCO1` [Ruboxistaurin] (top concentration 10000 nM), the “selective drug sensitivity score” value was -0.44.
`CCNC(=O)CCC/C=C\C[C@@H]1[C@@H](/C=C/[C@@H](O)CCc2ccccc2)[C@H](O)C[C@@H]1O` [Bimatoprost] (top concentration 5500 nM): the “selective drug sensitivity score” value was 5.6.
For the compound `O=c1[nH]cc(F)c(=O)[nH]1` [Fluorouracil] (top concentration 10000 nM), the “selective drug sensitivity score” value is -0.64.
The same measure, in the same setting: then `CC1(C)NC(=O)N(c2ccc([N+](=O)[O-])c(C(F)(F)F)c2)C1=O` [Nilutamide] (top concentration 10000 nM), with -0.38; and `CNC(=O)c1ccc2cc([C@@]3(O)CCn4cncc43)ccc2c1` [Orteronel] (top concentration 10000 nM), with 0.
Still for that read-out and setting: then `CCC(C)(C)C(=O)O[C@H]1C[C@@H](C)C=C2C=C[C@H](C)[C@H](CC[C@@H]3C[C@@H](O)CC(=O)O3)[C@H]21` [Simvastatin] (top concentration 10000 nM), with -0.72; and `C[C@]12CC[C@H](O)CC1=CC[C@@H]1[C@@H]2CC[C@]2(C)C(c3cccnc3)=CC[C@@H]12` [Abiraterone] (top concentration 5000 nM), with -0.12.
